Measured values published in ChEMBL document CHEMBL1133836, “Anchoring and bola cationic amphiphiles for nucleotide delivery. Effects of orientation and extension of hydrophobic regions” (2001).

Legend:
Format in all cases: functional, Mus musculus
[1] = test system: NIH3T3; assay: Transfection activity of the liposomes derived from compound determined by luciferase assay at 12.5 nmol
[2] = test system: NIH3T3; assay: Transfection activity of the liposomes derived from compound determined by luciferase assay at 25 nmol
[3] = test system: NIH3T3; assay: Cytotoxicity expressed as percent viability of liposome-plasmid DNA complex at 100 nmol
[4] = test system: NIH3T3; assay: Cytotoxicity expressed as percent viability of liposome-plasmid DNA complex at 12.5 nmol
[5] = test system: NIH3T3; assay: Cytotoxicity expressed as percent viability of liposome-plasmid DNA complex at 25 nmol
[6] = test system: NIH3T3; assay: Cytotoxicity expressed as percent viability of liposome-plasmid DNA complex at 50 nmol
[7] = test system: NIH3T3; assay: Cytotoxicity expressed as percent viability of liposome-plasmid DNA complex

SMILES	Transfection activity [1]	Transfection activity [2]	Viability [3] [%]	Viability [4] [%]	Viability [5] [%]	Viability [6] [%]	Viability [7] [%]
C[C@H](CCC(=O)NCCCNCCCCN)C1CCC2C3CCC4CC(OC/C=C/CO[C@H]5CC[C@]6(C)C(CCC7C6CC[C@]6(C)C7CCC6[C@H](C)CCC(=O)NCCCNCCCCN)C5)CC[C@]4(C)C3CC[C@@]21C (stereo partly drawn)	1500000 RLU (mg of protein)-1	2000000 RLU (mg of protein)-1	5	95	75	40	–
C[C@H](CCC(=O)NCCCNCCCCN)C1CCC2C3CCC4CC(OC/C=C/CO[C@@H]5CC[C@]6(C)C(CCC7C6CC[C@]6(C)C7CCC6[C@H](C)CCC(=O)NCCCNCCCCN)C5)CC[C@]4(C)C3CC[C@@]21C (stereo partly drawn)	1000000 RLU (mg of protein)-1	–	–	–	–	–	–
CC(C)CCC[C@@H](C)C1CCC2C3CC=C4CC(OC(=O)NCCN(C)C)CCC4(C)C3CCC21C (stereo partly drawn)	–	–	–	–	–	–	95
